Assay [1] relates to panel of 60 human cancer cell lines. Put plainly: NCI/DTP in vitro anticancer screen, 60 cell lines. The format is cell-based. The conditions noted are these: 60 cell; NCI panel of 60 human cancer cell lines, value per compound (FIG. 10A); read-out: GI50 (growth inhibition by 50%). How it is done:
The twenty-three compounds of Formula I shown below were evaluated for their antiproliferative effects in a panel of 60 human cancer cell lines as part of the in vitro anticancer screening services provided by the DTP (Developmental Therapeutics Program) of the US National Cancer Institute (NCI) U.S. National Cancer Institute (NCI) of the National Institutes of Health (NIH) in […], Md.
The NCI conducts a standard 48/72 hour 60 cell line assay and an in vitro time course assay as described in Alley et al. (Cancer Res (1988) 48:589). In the standard 60 cell line assay, a minimum of 5 concentrations of the test compound are tested at 10-fold dilutions against 60 cell lines and cell growth is assayed at 48 and 72 hours using a sulphorhodamine B assay. For the time course analysis, tumour cells are treated with the test compound at various time points, then washed and grown in medium free of the test compound until the end of the experiment at 144 hrs. This assay employs 20% FBS to better approximate the minimum c×t (concentrations and times) test compound exposure conditions that are required to achieve activity in vivo. Cell growth is quantified by an MTT assay (similar to the XTT assay described above) and the concentration of the test compound required for growth inhibition is determined. […]

For assay [2], the system named is HT-29 colon adenocarcinoma cells. Put plainly: cell cycle analysis by flow cytometry. The format is cell-based, human. The note with it: HT-29 cells starved 3 days, 15 μM or 25 μM for 24 or 48 hours, 10% serum. How it is done:
The effect of treatment with compound 45 on cell cycle progression in HT-29 colon adenocarcinoma cells was examined by flow cytometry (FIG. 22). Values were determined by gate analysis of flow cytometric plots and are presented in FIG. 22 as a percentage of the total cell population, after eliminating doubles. Apoptotic events inferred by the surface area preceding G1 phase. Cells were starved for 3 days, and treated with 15 μM or 25 μM compound 45 for 24 or 48 hours in the presence of 10% serum, followed by flow cytometric analysis.

For assay [3], the system named is A498 renal carcinoma cells. Put plainly: morphological changes (vacuoles), A498. The format is cell-based, human. The note with it: treatment for 24 hours. An excerpt: These vacuoles are not formed in DMSO- or doxorubicin-treated cells. Moreover, the nuclear membrane is no longer evident in the phase-contrast images of cells treated with compound 45, even though the nucleus is still intact, as shown by DAPI staining.

The next assay has as its target T1, ASK1 (Homo sapiens, UniProt Q99683).
T1 construct: purchased Upstate Biotechnologies (kinase profiler service)
Put plainly: kinase profiler, ASK1. The format is biochemical. The conditions noted are these: 10 μM compound, 100 μM ATP, mean of % control. As to the method:
(§1) Compound 45 was tested for its ability to function as a kinase inhibitor using the kinase profiler service from Upstate Biotechnologies. The general protocol employed is as follows: recombinant kinases were incubated with specific substrates, 10 mM MgAcetate, and [γ-^33P-ATP]. The reaction was initiated by the addition of MgATP mix. After incubation at room temperature for 40 minutes, the reaction was stopped by the addition of 5 μl of a 3% phosphoric acid solution. 10 μl of the reaction was then spotted on to a P30 filtermat and washed 3 times for 5 min. in 75 mM phosphoric acid and once in methanol prior to drying and scintillation counting. Each reaction was performed in duplicate with 100 μM ATP −/+10 μM compound 45. Results are presented in Table IV and are expressed as the mean of % control (no compound). PI 3-kinase-γ (PI3K-γ) activity was determined with the PIProfiler™ assay, which measures the binding of the GRP1 pleckstrin homology (PH) domain to PIP3, the product of PI3K acting on its physiological substrate PIP2.

For a further assay, the target named is T2, BRK (Homo sapiens, UniProt Q13882).
T2 construct: purchased Upstate Biotechnologies (kinase profiler service)
T2 sequence (Q13882 whole entry): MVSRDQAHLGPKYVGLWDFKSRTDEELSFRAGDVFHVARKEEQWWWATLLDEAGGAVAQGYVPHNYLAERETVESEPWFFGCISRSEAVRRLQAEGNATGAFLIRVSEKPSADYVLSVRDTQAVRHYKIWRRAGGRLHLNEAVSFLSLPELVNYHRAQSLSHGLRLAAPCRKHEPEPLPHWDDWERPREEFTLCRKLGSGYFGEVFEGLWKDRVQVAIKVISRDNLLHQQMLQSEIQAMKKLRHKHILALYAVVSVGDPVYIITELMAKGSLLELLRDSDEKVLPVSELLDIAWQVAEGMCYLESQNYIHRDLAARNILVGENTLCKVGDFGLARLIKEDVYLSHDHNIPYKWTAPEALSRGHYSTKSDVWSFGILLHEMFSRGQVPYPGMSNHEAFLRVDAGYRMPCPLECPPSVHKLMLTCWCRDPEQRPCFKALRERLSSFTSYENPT
Put plainly: kinase profiler, BRK. The format is biochemical. The conditions noted are these: 10 μM compound, 100 μM ATP, mean of % control. How it is done:
as §1

In a further assay the test system is CaMKII. Put plainly: kinase profiler, CaMKII. The format is biochemical, human. The conditions noted are these: 10 μM compound, 100 μM ATP, mean of % control. How it is done: as §1
The target of another assay is T3, CHK1 (Homo sapiens, UniProt O14757).
T3 construct: purchased Upstate Biotechnologies (kinase profiler service)
Nature of the assay: kinase profiler, CHK1. The format is biochemical. The note with it: 10 μM compound, 100 μM ATP, mean of % control. How it is done: as §1

The next assay deals with T4, CK2 (Homo sapiens, UniProt P68400).
T4 construct: purchased Upstate Biotechnologies (kinase profiler service)
Nature of the assay: kinase profiler, CK2. The format is biochemical. The conditions noted are these: 10 μM compound, 100 μM ATP, mean of % control. How it is done:
as §1

Another assay has as its target T5, EphA2 (Homo sapiens, UniProt P29317).
T5 construct: purchased Upstate Biotechnologies (kinase profiler service)
Nature of the assay: kinase profiler, EphA2. The format is biochemical. The conditions noted are these: 10 μM compound, 100 μM ATP, mean of % control. How it is done:
as §1

Another assay has as its target T6, ErbB4 (Homo sapiens, UniProt Q15303).
T6 construct: purchased Upstate Biotechnologies (kinase profiler service)
Nature of the assay: kinase profiler, ErbB4. The format is biochemical. The conditions noted are these: 10 μM compound, 100 μM ATP, mean of % control. As to the method:
as §1

For the next assay, the target named is T7, IGF-1R (Homo sapiens, UniProt P08069).
T7 construct: purchased Upstate Biotechnologies (kinase profiler service)
Nature of the assay: kinase profiler, IGF-1R. The format is biochemical. The conditions noted are these: 10 μM compound, 100 μM ATP, mean of % control. How it is done:
as §1

The target in the next assay is T8, IKKβ (Homo sapiens, UniProt O14920).
T8 construct: purchased Upstate Biotechnologies (kinase profiler service)
Put plainly: kinase profiler, IKKβ. The format is biochemical. The note with it: 10 μM compound, 100 μM ATP, mean of % control. How it is done: as §1

Another assay concerns the target T9, MAPKAP-K2 (Homo sapiens, UniProt P49137).
T9 construct: purchased Upstate Biotechnologies (kinase profiler service)
Put plainly: kinase profiler, MAPKAP-K2. The format is biochemical. The conditions noted are these: 10 μM compound, 100 μM ATP, mean of % control. As to the method:
as §1

For the next assay, the target named is T10, Met (Homo sapiens, UniProt P08581).
T10 construct: purchased Upstate Biotechnologies (kinase profiler service)
Nature of the assay: kinase profiler, Met. The format is biochemical. The note with it: 10 μM compound, 100 μM ATP, mean of % control. As to the method: as §1

The target in another assay is T11, PAR-1Bα (Homo sapiens, UniProt Q7KZI7).
T11 construct: purchased Upstate Biotechnologies (kinase profiler service)
Nature of the assay: kinase profiler, PAR-1Bα. The note with it: 10 μM compound, 100 μM ATP, mean of % control. The format is biochemical. How it is done:
as §1

For a further assay, the target named is T12, PDGFRα (Homo sapiens, UniProt P16234).
T12 construct: purchased Upstate Biotechnologies (kinase profiler service)
T12 sequence (P16234 24-1089): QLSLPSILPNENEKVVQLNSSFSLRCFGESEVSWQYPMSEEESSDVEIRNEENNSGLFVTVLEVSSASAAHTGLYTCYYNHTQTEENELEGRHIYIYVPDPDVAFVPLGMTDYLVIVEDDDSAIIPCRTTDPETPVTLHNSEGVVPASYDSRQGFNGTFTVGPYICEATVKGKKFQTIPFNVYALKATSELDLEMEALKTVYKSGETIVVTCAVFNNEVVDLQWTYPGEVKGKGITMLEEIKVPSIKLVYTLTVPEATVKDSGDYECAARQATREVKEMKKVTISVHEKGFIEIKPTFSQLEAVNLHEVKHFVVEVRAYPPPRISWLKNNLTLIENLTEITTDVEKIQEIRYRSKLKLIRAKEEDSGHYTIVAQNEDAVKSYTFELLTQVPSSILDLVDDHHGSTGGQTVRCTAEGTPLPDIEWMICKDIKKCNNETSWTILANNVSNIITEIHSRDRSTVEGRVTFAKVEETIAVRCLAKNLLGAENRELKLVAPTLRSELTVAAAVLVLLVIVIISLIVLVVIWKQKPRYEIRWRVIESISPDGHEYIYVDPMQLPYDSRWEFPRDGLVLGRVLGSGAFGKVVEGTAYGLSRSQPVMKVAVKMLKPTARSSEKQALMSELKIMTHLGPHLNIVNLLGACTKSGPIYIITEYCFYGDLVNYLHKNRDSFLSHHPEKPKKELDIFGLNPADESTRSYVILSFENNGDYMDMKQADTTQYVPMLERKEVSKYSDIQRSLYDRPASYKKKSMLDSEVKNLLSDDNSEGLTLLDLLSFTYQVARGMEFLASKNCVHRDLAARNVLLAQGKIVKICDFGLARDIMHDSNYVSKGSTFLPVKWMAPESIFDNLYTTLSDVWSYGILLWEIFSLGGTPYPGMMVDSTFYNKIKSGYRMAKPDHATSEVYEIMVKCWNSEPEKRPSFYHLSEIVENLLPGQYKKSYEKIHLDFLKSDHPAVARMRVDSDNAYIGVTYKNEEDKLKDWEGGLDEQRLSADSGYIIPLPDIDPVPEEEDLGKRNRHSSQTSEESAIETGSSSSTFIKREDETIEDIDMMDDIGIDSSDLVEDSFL
Nature of the assay: kinase profiler, PDGFRα. The format is biochemical. The note with it: 10 μM compound, 100 μM ATP, mean of % control. How it is done: as §1

The target of the next assay is T13, Pim-1 (Homo sapiens, UniProt P11309).
T13 construct: purchased Upstate Biotechnologies (kinase profiler service)
Put plainly: kinase profiler, Pim-1. The format is biochemical. The conditions noted are these: 10 μM compound, 100 μM ATP, mean of % control. How it is done:
as §1

The next assay concerns the target T14, PKCα (Homo sapiens, UniProt P17252).
T14 construct: purchased Upstate Biotechnologies (kinase profiler service)
Nature of the assay: kinase profiler, PKCα. The format is biochemical. The note with it: 10 μM compound, 100 μM ATP, mean of % control. How it is done:
as §1

For the next assay, the target named is T15, PRK2 (Homo sapiens, UniProt Q16513).
T15 construct: purchased Upstate Biotechnologies (kinase profiler service)
Nature of the assay: kinase profiler, PRK2. The format is biochemical. The note with it: 10 μM compound, 100 μM ATP, mean of % control. How it is done:
as §1

For another assay, the target named is T16, SAPK3 (Homo sapiens, UniProt P53778).
T16 construct: purchased Upstate Biotechnologies (kinase profiler service)
Nature of the assay: kinase profiler, SAPK3. The format is biochemical. The conditions noted are these: 10 μM compound, 100 μM ATP, mean of % control. How it is done: as §1

A further assay deals with T17, SRC (Homo sapiens, UniProt P12931).
T17 construct: purchased Upstate Biotechnologies (kinase profiler service)
T17 sequence (P12931 whole entry): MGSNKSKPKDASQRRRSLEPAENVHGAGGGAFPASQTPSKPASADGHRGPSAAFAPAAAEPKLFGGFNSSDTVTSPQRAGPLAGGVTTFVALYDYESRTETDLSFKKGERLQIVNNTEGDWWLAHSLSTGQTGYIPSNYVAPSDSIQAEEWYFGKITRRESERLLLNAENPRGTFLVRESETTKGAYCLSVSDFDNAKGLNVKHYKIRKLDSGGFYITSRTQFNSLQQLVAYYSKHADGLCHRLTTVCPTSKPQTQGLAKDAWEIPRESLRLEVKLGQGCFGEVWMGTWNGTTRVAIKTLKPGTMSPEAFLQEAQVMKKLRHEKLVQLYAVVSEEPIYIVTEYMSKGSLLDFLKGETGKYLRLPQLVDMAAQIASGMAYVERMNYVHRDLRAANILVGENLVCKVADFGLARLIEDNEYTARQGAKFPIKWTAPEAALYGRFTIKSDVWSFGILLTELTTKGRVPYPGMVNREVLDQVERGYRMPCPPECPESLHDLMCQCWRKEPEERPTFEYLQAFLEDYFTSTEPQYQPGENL
Put plainly: kinase profiler, SRC. The note with it: 10 μM compound, 100 μM ATP, mean of % control. The format is biochemical. As to the method: as §1

The target in another assay is T18, Tie2 (Homo sapiens, UniProt Q02763).
T18 construct: purchased Upstate Biotechnologies (kinase profiler service)
T18 sequence (Q02763 23-1124): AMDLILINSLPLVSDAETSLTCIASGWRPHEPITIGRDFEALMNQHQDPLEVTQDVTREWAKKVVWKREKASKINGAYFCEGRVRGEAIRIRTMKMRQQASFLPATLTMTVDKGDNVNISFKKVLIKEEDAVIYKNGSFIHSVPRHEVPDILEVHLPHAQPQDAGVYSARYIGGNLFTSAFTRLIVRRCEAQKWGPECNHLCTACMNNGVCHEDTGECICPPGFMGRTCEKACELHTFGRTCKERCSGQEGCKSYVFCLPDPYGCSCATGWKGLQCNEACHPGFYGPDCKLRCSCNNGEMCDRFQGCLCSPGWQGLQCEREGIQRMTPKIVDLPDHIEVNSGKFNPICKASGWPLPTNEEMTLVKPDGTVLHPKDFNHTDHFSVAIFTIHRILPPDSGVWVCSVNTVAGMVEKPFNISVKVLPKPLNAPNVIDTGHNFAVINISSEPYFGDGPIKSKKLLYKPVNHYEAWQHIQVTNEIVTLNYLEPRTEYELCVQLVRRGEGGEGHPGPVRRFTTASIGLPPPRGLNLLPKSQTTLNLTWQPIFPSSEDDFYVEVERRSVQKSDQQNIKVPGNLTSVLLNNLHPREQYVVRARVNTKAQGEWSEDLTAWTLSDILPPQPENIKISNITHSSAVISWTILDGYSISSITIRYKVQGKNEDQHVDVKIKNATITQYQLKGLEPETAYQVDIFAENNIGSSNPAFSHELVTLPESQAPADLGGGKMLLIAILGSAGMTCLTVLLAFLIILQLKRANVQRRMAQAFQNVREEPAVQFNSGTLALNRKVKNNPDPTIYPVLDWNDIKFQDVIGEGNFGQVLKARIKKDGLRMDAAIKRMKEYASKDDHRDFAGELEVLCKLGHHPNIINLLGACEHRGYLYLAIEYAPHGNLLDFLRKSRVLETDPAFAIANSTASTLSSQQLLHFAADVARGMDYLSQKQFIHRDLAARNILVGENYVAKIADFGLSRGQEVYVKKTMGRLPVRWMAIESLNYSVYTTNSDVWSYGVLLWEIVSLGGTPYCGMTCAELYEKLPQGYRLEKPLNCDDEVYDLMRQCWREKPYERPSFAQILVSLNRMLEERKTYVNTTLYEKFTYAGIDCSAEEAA
Nature of the assay: kinase profiler, Tie2. The format is biochemical. The note with it: 10 μM compound, 100 μM ATP, mean of % control. As to the method:
as §1

The target in another assay is T19, TrkA (Homo sapiens, UniProt P04629).
T19 construct: purchased Upstate Biotechnologies (kinase profiler service)
Put plainly: kinase profiler, TrkA. The format is biochemical. The note with it: 10 μM compound, 100 μM ATP, mean of % control. As to the method: as §1

In the next assay the target is T20, Yes (Homo sapiens, UniProt P07947).
T20 construct: purchased Upstate Biotechnologies (kinase profiler service)
T20 sequence (P07947 whole entry): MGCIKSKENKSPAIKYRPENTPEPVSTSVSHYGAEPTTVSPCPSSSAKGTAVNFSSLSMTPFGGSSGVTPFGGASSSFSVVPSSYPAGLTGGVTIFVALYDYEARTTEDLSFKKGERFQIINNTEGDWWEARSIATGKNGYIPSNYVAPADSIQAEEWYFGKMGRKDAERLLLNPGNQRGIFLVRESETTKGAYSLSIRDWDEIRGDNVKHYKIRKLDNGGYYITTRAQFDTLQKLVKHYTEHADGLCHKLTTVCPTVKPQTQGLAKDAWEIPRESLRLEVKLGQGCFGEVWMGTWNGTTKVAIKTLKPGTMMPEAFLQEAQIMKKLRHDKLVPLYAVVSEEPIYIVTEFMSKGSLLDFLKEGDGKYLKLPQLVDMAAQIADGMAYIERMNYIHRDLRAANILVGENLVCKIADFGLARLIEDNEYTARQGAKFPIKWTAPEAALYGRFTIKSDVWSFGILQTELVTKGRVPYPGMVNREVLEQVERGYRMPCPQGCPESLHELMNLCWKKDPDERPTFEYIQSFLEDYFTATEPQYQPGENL
Put plainly: kinase profiler, Yes. The format is biochemical. The note with it: 10 μM compound, 100 μM ATP, mean of % control. As to the method:
as §1

Entries after “also recorded” stand apart in the source; their conditions may differ.

Broadly, the GI50 is the concentration that inhibits growth by half.

T9 sequence (P49137 whole entry): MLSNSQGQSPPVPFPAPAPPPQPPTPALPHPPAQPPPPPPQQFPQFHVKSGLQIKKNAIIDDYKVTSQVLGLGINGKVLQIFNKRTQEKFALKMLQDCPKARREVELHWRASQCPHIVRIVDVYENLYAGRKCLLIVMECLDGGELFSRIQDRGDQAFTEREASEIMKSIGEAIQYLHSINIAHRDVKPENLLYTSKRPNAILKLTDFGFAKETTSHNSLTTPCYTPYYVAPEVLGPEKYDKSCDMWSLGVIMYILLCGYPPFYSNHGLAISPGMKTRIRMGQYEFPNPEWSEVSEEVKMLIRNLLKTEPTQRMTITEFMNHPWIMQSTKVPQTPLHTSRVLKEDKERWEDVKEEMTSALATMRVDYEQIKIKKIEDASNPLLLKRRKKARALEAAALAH
T5 sequence (P29317 24-976): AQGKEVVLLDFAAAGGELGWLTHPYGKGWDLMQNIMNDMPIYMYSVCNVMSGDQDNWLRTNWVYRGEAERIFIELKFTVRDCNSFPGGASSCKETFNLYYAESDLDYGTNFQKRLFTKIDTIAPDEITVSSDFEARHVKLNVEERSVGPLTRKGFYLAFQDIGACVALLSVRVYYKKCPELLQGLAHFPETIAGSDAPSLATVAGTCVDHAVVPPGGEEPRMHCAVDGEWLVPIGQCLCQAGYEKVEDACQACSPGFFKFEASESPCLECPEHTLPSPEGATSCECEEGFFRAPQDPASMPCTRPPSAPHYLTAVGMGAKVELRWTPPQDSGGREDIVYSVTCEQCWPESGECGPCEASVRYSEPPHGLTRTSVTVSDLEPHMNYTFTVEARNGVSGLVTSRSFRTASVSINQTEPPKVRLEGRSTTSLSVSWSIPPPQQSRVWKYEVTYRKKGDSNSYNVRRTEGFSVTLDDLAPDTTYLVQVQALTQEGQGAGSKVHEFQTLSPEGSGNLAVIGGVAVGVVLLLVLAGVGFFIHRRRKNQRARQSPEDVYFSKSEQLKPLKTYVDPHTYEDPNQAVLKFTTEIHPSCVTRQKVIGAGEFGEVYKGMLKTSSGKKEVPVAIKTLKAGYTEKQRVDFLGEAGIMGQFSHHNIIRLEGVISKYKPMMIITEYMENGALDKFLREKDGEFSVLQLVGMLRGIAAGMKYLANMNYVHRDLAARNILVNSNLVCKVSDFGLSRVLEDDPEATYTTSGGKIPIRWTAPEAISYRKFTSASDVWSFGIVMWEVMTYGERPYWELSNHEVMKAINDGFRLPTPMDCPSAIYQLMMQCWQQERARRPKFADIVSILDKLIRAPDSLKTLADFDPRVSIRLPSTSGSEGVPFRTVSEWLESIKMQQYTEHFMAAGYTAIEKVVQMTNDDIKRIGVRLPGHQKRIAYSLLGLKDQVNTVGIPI

Regarding `Brc1ccc2[nH]cc(-c3nc4c5ccccc5c5ccccc5c4[nH]3)c2c1` [Compound 45], in [1], the GI50 amounted to 2000 nM. Moreover, the “effect on cell cycle progression” value in assay [2] is “increase of cells in the G1 phase and a decrease in the S and G2/M phases; also recorded: partial arrest in the G0/G1 phase”. In addition, the formation of vacuoles result in [3] is listed as “formation of large vacuoles within the cytoplasm”. The activity at 10 µM at ASK1 came to 99%; on BRK it was 112%; on CHK1 it was 111%; at CK2 it was 91%; on EphA2, 95%; at ErbB4, 73%. In addition, the activity at 10 µM on IGF-1R is 80%; at IKKβ it was 111%; at MAPKAP-K2, 119%; at Met it was 129%; at PAR-1Bα, 88%; on PDGFRα, 117%. Moreover, the activity at 10 µM on Pim-1 is 70%; at PKCα it was 92%; at PRK2 it was 83%; at SAPK3, 54%; on SRC, 102%; at Tie2 it was 109%. The activity at 10 µM at TrkA was 56%; at Yes, 91%. Also, the “% activity” value with CaMKII is reported as 32%.

(Values after patent US10080739B2, “Aryl imidazoles and their use as anti-cancer agents” (Aptose Biosciences Inc., priority 2003, dated 2018).)
